Source: PubChem BioAssay (NCI)
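48-hour exposure; five concentrations; linearly interpolated endpoints. TGI: concentration producing complete growth inhibition.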

How the values were obtained:
Test in all cases: DTP human tumour cell line panel, 48 h
[1] = test system: 786-0 renal
[2] = test system: A498 renal
[3] = test system: A549 NSCLC
[4] = test system: ACHN renal
[5] = test system: CAKI-1 renal
[6] = test system: CCRF-CEM leukemia
[7] = test system: COLO 205 colon
[8] = test system: DU-145 prostate
[9] = test system: EKVX NSCLC
[10] = test system: HCC-2998 colon
[11] = test system: HCT-116 colon
[12] = test system: HCT-15 colon
[13] = test system: HL-60(TB) leukemia
[14] = test system: HOP-62 NSCLC
[15] = test system: HOP-92 NSCLC
[16] = test system: HS 578T breast
[17] = test system: HT29 colon
[18] = test system: IGROV1 ovarian
[19] = test system: K-562 leukemia
[20] = test system: KM12 colon
[21] = test system: LOX IMVI melanoma
[22] = test system: M14 melanoma
[23] = test system: MALME-3M melanoma
[24] = test system: MCF7 breast
[25] = test system: MDA-MB-231 breast
[26] = test system: MDA-MB-435
[27] = test system: MDA-N
[28] = test system: MOLT-4 leukemia
[29] = test system: NCI-H226 lung
[30] = test system: NCI-H23 lung
[31] = test system: NCI-H460 lung
[32] = test system: NCI-H522 lung
[33] = test system: NCI/ADR-RES ovarian
[34] = test system: OVCAR-3 ovarian
[35] = test system: OVCAR-4 ovarian
[36] = test system: OVCAR-5 ovarian
[37] = test system: OVCAR-8 ovarian
[38] = test system: PC-3 prostate
[39] = test system: RPMI-8226 leukemia
[40] = test system: RXF 393 renal
[41] = test system: SF-268 CNS
[42] = test system: SF-295 CNS
[43] = test system: SF-539 CNS
[44] = test system: SK-MEL-2 melanoma
[45] = test system: SK-MEL-28 melanoma
[46] = test system: SK-MEL-5 melanoma
[47] = test system: SK-OV-3 ovarian
[48] = test system: SN12C renal
[49] = test system: SNB-19 CNS
[50] = test system: SNB-75 CNS
[51] = test system: SR leukemia
[52] = test system: SW-620 colon
[53] = test system: T-47D breast
[54] = test system: TK-10 renal
[55] = test system: U251 CNS
[56] = test system: UACC-257 melanoma
[57] = test system: UACC-62 melanoma
[58] = test system: UO-31 renal
[59] = test system: BT-549 breast

For `CC1CC(C)C2=NOS3=C2C1=NO3` (configuration not stated), the TGI [1] was greater than 100 µM, the TGI [2] was 94.8 µM and the TGI [3] was greater than 100 µM. For the same compound, the TGI [4] was greater than 100 µM, the TGI [5] was greater than 100 µM and the TGI [6] was greater than 100 µM. For the same compound, the TGI [7] was greater than 100 µM, the TGI [8] was greater than 100 µM and the TGI [9] was greater than 100 µM. For the same compound, the TGI [10] was greater than 100 µM, the TGI [11] was greater than 100 µM and the TGI [12] was greater than 100 µM. The TGI [13] was greater than 100 µM, the TGI [14] was greater than 100 µM and the TGI [15] was greater than 100 µM. It also gave a TGI [16] greater than 100 µM, a TGI [17] greater than 100 µM and a TGI [18] greater than 100 µM. The TGI [19] was greater than 100 µM, the TGI [20] was greater than 100 µM and the TGI [21] was greater than 100 µM. It also gave a TGI [22] greater than 100 µM, a TGI [23] greater than 100 µM and a TGI [24] greater than 100 µM. It also gave a TGI [25] greater than 100 µM, a TGI [26] greater than 100 µM and a TGI [27] greater than 100 µM. For the same compound, the TGI [28] was greater than 100 µM, the TGI [29] was greater than 100 µM and the TGI [30] was greater than 100 µM. The TGI [31] was greater than 100 µM, the TGI [32] was greater than 100 µM and the TGI [33] was greater than 100 µM. For the same compound, the TGI [34] was greater than 100 µM, the TGI [35] was greater than 100 µM and the TGI [36] was greater than 100 µM. It also gave a TGI [37] greater than 100 µM, a TGI [38] greater than 100 µM and a TGI [39] greater than 100 µM. The TGI [40] was greater than 100 µM, the TGI [41] was greater than 100 µM and the TGI [42] was greater than 100 µM. It also gave a TGI [43] greater than 100 µM, a TGI [44] greater than 100 µM and a TGI [45] greater than 100 µM. The TGI [46] was greater than 100 µM, the TGI [47] was greater than 100 µM and the TGI [48] was greater than 100 µM. The TGI [49] was greater than 100 µM, the TGI [50] was greater than 100 µM and the TGI [51] was greater than 100 µM. It also gave a TGI [52] greater than 100 µM, a TGI [53] greater than 100 µM and a TGI [54] greater than 100 µM. For the same compound, the TGI [55] was greater than 100 µM, the TGI [56] was greater than 100 µM and the TGI [57] was greater than 100 µM. For the same compound, the TGI [58] was greater than 100 µM.
For `O=C(NNC(=S)NCc1ccccc1)C12CC3CC(CC(C3)C1)C2`, the TGI [1] was greater than 100 µM, the TGI [2] was greater than 100 µM and the TGI [4] was greater than 100 µM. The TGI [59] was greater than 100 µM, the TGI [6] was greater than 100 µM and the TGI [7] was 44.1 µM. It also gave a TGI [8] greater than 100 µM, a TGI [10] greater than 100 µM and a TGI [11] greater than 100 µM. It also gave a TGI [12] greater than 100 µM, a TGI [13] of 51.7 µM and a TGI [14] greater than 100 µM. The TGI [16] was greater than 100 µM, the TGI [17] was greater than 100 µM and the TGI [18] was greater than 100 µM. The TGI [19] was greater than 100 µM, the TGI [20] was greater than 100 µM and the TGI [21] was greater than 100 µM. For the same compound, the TGI [22] was greater than 100 µM, the TGI [23] was greater than 100 µM and the TGI [24] was greater than 100 µM. For the same compound, the TGI [25] was greater than 100 µM, the TGI [26] was greater than 100 µM and the TGI [27] was greater than 100 µM. For the same compound, the TGI [28] was greater than 100 µM, the TGI [29] was greater than 100 µM and the TGI [30] was greater than 100 µM. The TGI [31] was greater than 100 µM, the TGI [32] was greater than 100 µM and the TGI [33] was greater than 100 µM. It also gave a TGI [34] greater than 100 µM, a TGI [35] greater than 100 µM and a TGI [36] greater than 100 µM. For the same compound, the TGI [37] was greater than 100 µM, the TGI [38] was greater than 100 µM and the TGI [39] was greater than 100 µM. The TGI [40] was greater than 100 µM, the TGI [41] was greater than 100 µM and the TGI [42] was greater than 100 µM. The TGI [43] was greater than 100 µM, the TGI [44] was greater than 100 µM and the TGI [45] was greater than 100 µM. For the same compound, the TGI [47] was greater than 100 µM, the TGI [48] was greater than 100 µM and the TGI [49] was greater than 100 µM. The TGI [50] was greater than 100 µM, the TGI [51] was greater than 100 µM and the TGI [52] was greater than 100 µM. The TGI [53] was greater than 100 µM, the TGI [54] was greater than 100 µM and the TGI [55] was greater than 100 µM. The TGI [56] was greater than 100 µM, the TGI [57] was greater than 100 µM and the TGI [58] was greater than 100 µM.
